What was measured:
[1] = test system: rodent model of nociceptive pain (tail-flick test); experiment: Tail-flick test after intrathecal (IT) administration; assay type: in vivo, Sprague Dawley male rats; settings: rat
Method: Chronic catheterization of the spinal subarachnoid space was performed in Sprague Dawley male rats (about 90 days old, 350 g; Harlem, IN) according to minor modification of the method described by [Yaksh T and Rudy T. “Chronic catheterization of the spinal subarachnoid space” Physiol Behav (1976) 17:1031-1036]. Briefly, a 21 cm long P-10 polyethylene tubing (volume 10 mcl) which extended 8.5 cm beyond an incision in the atlanto-occipital membrane was inserted and secured to the scull with acrylic cement. The catheter rested in the vicinity of T-12 at the rostral face of the lumbar cord enlargement. The study was initiated 7 days after IT catheterization.
S(−)-nornicotine perchlorate (10 mcg), R(+)-nornicotine perchlorate (10 mcg) and morphine sulfate (0.5 mcg) were dissolved in saline and administered by the intrathecal (IT) route (10 mcl). Groups of rats was treated with S(−)-nornicotine alone and in combination with morphine, […] alone and in combination with morphine, morphine alone, and saline (10 mcl). The responses to acute thermal stimuli were determined using the tail-flick test (a baseline equal to about 2-3 seconds, cut-off time of 10 seconds). […] Data are presented as time courses of the TFL (normalized for baseline) and areas under the curve (AUC0-180min). All data are mean±SEM (n=4-6 rats). Doses refer to salts.

[2] = test system: rodent model of nociceptive pain (tail-flick test); experiment: Tail-flick test after intraperitoneal (IP) administration; assay type: in vivo, Sprague Dawley male rats; settings: rat
Method: Sprague Dawley (about 90 days old, 350 g; Harlem, IN) male rats were used. S(−)-nornicotine fumarate (2.57 mg/kg), R(+)-nornicotine fumarate (2.57 mg/kg) and morphine sulfate (3 mg/kg) were dissolved in saline and injected intraperitonealy (IP, 1 ml/kg). Each rat received three treatments: either S(−)-nornicotine alone, morphine alone and S(−)-nornicotine followed by morphine or R(+)-nornicotine alone, morphine alone and R(+)-nornicotine followed by morphine. Injections were made in randomized fashion at 48 hour intervals. The responses to acute thermal stimuli were determined using the tail-flick test [D'Amour F. E., Smith D. L. “A method for determining loss of pain sensation” J Pharmacol Exp Ther (1941), 72:74-79]. Tail-flick latency (TFL) was measured by recording the time from the onset of the heat stimulus to the tail to withdrawal of the tail from the heat source, using a standard tail-flick apparatus (IITC, Life Science). The sensitivity of the instrument was adjusted to provide a baseline about 2 seconds. Cut-off time of 10 seconds was used to avoid tail damage. TFL were determined prior to (twice, about 15 minutes apart) and at […] after administration. Data were normalized for pre-injection baseline. Areas under the curve (AUC0-180min) were calculated for normalized data by trapezoidal rule. […]

[3] = following peripheral administration of nicotine; cited from earlier work
[4] = following repeated nicotine dosing; cited from earlier work
[5] = compared with nicotine; cited from earlier work
[6] = humans; cited from earlier work

| Structure (SMILES) | analgesia of S(−)-nornicotine alone (tail-flick latency, AUC0-180min) ([1]; S(−)-nornicotine perchlorate 10 mcg alone) | effect on the analgesic effect of morphine (tail-flick latency, AUC0-180min) ([1]; S(−)-nornicotine perchlorate 10 mcg with morphine sulfate 0.5 mcg) | analgesia of S(−)-nornicotine alone (tail-flick latency, AUC0-180min) ([2]; S(−)-nornicotine fumarate 2.57 mg/kg alone) | effect on the analgesic effect of morphine (tail-flick latency, AUC0-180min) ([2]; S(−)-nornicotine fumarate 2.57 mg/kg followed by morphine sulfate 3 mg/kg) | residence in the rat's brain [3] | residence in the rat's brain relative to nicotine [3] | accumulation in the brain compared to nicotine [4] | bioavailability (in words) [5] | plasma half-life [6] |
| --- | --- | --- | --- | --- | --- | --- | --- | --- | --- |
| c1cncc([C@@H]2CCCN2)c1 [S(−)-nornicotine] | did not produce analgesia | significantly enhanced | did not produce analgesia | significantly enhanced | – | – | – | – | – |
| CN1CCCC1c1cccnc1 (stereo not shown) [nicotine, reference compound] | – | – | – | – | 52 min | – | – | – | – |
| c1cncc([C@@H]2CCCN2)c1 [nornicotine] | – | – | – | – | 166 min | about 3 times | about 4 fold | superior | 8 h |

Reference: patent publication US20100048605A1, “SYNERGISTIC EFFECTS OF COMBINATIONS OF N[…] OPIOIDS FOR THE TREATMENT OF PAIN” (University of Kentucky Research Foundation, priority 2006, published 2010)
